The test system of one assay is DLD-1. The assay is described as follows: Cytotoxicity against human DLD1 cells by XTT reagent based automated microculture tetrazolium assay. The class given is functional, cell-based. (In general: Formazan colour is commonly taken as a measure of viable cells.)
Another assay relates to HepG2. Description: Cytotoxicity against human HepG2 cells by XTT reagent based automated microculture tetrazolium assay. It counts as functional, cell-based.
In the next assay the test system is K562. The assay is described as follows: Cytotoxicity against human K562 cells by XTT reagent based automated microculture tetrazolium assay. The class given is functional, cell-based.
Assay [1] can be described thus: Cytotoxicity against human Hep3B cells by XTT reagent based automated microculture tetrazolium assay. The class given is functional, cell-based, Hep 3B2.

In ChEMBL document CHEMBL1821691, “Cytotoxic C21 and C22 terpenoid-derived metabolites from the sponge Ircinia sp” (J Nat Prod, 2011) one finds IC50 data, which are given here for five compounds.

By IC50 is commonly meant the concentration that inhibits the measured activity by half. A higher IC50 goes with lower potency. As to `C/C(=C\[C@@H](O)C/C(C)=C/CCCC(=O)CO)CC[C@@H](O)[C@]1(C)CCC(=O)O1` [IRCINOLIN A], the IC50 (with DLD-1; with HepG2; in the assay on K562; in assay [1]) was > 20 µM in each case.

On to `CC(=O)O[C@H](CC/C(C)=C/[C@@H](O)C/C(C)=C/CCc1ccoc1)[C@]1(C)CCC(=O)O1`, for which the concentration for half-maximal inhibition (IC50) was found to be 0.03 µM in the assay with DLD-1, 0.5 µM with HepG2, 5.4 µM in the assay on K562 and 1.1 µM in assay [1].

Regarding `C/C(=C\[C@@H](O)C/C(C)=C/CCc1ccoc1)CC[C@@H](O)[C@]1(C)CCC(=O)O1` [IRCIFORMONIN B], the IC50 is 0.04 µM in the assay with DLD-1, 1 µM in the assay on HepG2, 7.8 µM in the assay with K562 and 6.4 µM in assay [1].

As to `CC(=O)O[C@H](/C=C(\C)CC[C@@H](O)[C@]1(C)CCC(=O)O1)C/C(C)=C/CCc1ccoc1`, the IC50 worked out at 0.2 µM in the assay on DLD-1, 2.2 µM in the assay on HepG2, 9.6 µM in the assay with K562 and 10.6 µM in assay [1].

With `CC(=O)O[C@H](/C=C(\C)CC[C@@H](OC(C)=O)[C@]1(C)CCC(=O)O1)C/C(C)=C/CCc1ccoc1` [IRCIFORMONIN F], the IC50 in the assay with DLD-1 is 0.6 µM; in the assay on HepG2, 1.7 µM; with K562 it was 10.2 µM; in assay [1], 7 µM.
